Active and inactive are the calls of the source.
Experiments:
[1] = target: T1, Pyridoxal kinase (Homo sapiens, UniProt O00764)
T1 sequence (O00764 whole entry): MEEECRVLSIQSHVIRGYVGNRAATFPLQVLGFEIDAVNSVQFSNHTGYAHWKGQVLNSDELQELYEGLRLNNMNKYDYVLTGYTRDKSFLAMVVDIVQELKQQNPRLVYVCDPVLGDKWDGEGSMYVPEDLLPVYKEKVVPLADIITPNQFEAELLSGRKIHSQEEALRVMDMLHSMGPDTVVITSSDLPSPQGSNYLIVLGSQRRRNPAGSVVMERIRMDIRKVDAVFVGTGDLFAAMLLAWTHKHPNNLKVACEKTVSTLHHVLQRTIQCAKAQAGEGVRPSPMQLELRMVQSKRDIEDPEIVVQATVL

[2] = target: T2, Ras-related protein Rab-10 (Homo sapiens, UniProt P61026)
T2 sequence (P61026 whole entry): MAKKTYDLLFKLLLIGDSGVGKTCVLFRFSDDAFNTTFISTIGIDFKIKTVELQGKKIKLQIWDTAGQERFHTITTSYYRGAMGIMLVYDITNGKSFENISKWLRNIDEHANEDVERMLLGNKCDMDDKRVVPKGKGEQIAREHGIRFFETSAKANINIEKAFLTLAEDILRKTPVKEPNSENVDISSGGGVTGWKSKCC

[3] = target: Ras-related protein Rab-6A (Homo sapiens, UniProt P20340)
Chain of Ras-related protein Rab-6A (P20340 whole entry): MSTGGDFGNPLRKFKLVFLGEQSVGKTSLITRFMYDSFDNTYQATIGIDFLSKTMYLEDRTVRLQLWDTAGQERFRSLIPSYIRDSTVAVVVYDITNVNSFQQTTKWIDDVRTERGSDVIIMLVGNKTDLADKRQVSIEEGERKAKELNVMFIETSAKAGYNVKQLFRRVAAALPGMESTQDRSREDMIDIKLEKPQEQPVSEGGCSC

[4] = target: DNA topoisomerase 2-alpha (Homo sapiens, UniProt P11388)
Chain of DNA topoisomerase 2-alpha (P11388 whole entry): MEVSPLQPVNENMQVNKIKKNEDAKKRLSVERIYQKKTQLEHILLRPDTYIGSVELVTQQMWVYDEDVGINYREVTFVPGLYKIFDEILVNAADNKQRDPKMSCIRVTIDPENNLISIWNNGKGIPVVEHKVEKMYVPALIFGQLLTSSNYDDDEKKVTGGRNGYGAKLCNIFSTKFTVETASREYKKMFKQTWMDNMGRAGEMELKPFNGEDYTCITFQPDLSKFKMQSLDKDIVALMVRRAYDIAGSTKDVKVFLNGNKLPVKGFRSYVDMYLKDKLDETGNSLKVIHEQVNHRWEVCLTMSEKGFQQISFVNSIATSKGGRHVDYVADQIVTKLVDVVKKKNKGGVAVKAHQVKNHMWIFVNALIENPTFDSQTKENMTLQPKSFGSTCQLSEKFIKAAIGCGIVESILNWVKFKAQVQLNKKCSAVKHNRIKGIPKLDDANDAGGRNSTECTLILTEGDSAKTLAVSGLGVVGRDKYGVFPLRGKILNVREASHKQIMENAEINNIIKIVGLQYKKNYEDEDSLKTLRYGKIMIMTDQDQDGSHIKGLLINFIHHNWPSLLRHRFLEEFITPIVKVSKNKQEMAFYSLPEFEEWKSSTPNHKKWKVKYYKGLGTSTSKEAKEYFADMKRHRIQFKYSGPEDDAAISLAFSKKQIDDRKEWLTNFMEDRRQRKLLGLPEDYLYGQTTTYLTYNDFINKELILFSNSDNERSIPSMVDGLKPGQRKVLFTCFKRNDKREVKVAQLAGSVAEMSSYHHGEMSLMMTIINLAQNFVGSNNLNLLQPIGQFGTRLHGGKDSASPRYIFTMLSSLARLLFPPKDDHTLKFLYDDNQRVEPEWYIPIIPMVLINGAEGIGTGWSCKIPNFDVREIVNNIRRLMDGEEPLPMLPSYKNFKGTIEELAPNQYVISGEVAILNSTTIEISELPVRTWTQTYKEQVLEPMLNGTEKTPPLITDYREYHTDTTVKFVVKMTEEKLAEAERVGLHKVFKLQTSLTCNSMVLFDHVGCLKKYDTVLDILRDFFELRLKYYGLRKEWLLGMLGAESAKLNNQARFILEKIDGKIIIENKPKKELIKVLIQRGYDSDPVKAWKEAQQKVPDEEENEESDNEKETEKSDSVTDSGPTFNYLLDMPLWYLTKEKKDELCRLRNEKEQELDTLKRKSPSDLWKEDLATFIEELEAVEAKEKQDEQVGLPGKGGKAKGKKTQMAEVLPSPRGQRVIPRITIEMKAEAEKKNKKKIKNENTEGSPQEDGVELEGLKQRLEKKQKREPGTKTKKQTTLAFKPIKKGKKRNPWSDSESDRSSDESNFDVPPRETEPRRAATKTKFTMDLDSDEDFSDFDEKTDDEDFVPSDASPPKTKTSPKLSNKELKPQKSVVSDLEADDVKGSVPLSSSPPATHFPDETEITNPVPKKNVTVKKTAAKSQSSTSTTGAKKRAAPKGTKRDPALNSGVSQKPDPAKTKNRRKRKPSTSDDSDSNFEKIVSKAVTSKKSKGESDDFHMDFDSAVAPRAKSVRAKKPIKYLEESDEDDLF

[5] = target: T3, ATP-dependent RNA helicase DDX42 (Homo sapiens, UniProt Q86XP3)
T3 sequence (Q86XP3 whole entry): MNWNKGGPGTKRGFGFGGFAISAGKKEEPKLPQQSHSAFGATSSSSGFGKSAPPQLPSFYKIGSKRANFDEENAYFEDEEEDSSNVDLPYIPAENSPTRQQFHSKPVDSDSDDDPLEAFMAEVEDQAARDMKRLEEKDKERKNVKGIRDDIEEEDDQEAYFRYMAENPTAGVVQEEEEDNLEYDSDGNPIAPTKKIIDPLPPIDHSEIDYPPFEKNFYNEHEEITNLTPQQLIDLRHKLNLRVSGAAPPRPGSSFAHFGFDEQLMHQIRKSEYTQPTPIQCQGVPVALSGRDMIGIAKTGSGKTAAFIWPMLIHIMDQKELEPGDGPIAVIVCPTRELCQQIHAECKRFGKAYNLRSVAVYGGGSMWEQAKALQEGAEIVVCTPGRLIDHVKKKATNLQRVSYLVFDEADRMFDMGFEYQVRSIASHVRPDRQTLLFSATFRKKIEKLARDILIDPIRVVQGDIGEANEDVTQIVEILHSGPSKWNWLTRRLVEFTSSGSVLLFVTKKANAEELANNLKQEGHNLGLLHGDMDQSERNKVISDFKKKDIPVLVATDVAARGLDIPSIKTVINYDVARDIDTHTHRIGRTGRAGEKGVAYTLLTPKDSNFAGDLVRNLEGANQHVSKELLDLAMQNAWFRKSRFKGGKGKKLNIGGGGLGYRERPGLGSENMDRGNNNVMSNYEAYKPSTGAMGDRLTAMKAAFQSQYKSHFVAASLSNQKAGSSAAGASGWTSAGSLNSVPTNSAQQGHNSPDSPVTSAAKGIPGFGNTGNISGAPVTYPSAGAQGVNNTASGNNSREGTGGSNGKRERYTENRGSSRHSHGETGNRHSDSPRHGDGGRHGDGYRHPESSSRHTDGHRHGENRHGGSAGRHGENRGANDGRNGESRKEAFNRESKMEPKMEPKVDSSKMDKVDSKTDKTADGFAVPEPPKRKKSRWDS

[6] = target: Myosin-14 (Homo sapiens, UniProt Q7Z406)
Chain of Myosin-14 (Q7Z406 whole entry): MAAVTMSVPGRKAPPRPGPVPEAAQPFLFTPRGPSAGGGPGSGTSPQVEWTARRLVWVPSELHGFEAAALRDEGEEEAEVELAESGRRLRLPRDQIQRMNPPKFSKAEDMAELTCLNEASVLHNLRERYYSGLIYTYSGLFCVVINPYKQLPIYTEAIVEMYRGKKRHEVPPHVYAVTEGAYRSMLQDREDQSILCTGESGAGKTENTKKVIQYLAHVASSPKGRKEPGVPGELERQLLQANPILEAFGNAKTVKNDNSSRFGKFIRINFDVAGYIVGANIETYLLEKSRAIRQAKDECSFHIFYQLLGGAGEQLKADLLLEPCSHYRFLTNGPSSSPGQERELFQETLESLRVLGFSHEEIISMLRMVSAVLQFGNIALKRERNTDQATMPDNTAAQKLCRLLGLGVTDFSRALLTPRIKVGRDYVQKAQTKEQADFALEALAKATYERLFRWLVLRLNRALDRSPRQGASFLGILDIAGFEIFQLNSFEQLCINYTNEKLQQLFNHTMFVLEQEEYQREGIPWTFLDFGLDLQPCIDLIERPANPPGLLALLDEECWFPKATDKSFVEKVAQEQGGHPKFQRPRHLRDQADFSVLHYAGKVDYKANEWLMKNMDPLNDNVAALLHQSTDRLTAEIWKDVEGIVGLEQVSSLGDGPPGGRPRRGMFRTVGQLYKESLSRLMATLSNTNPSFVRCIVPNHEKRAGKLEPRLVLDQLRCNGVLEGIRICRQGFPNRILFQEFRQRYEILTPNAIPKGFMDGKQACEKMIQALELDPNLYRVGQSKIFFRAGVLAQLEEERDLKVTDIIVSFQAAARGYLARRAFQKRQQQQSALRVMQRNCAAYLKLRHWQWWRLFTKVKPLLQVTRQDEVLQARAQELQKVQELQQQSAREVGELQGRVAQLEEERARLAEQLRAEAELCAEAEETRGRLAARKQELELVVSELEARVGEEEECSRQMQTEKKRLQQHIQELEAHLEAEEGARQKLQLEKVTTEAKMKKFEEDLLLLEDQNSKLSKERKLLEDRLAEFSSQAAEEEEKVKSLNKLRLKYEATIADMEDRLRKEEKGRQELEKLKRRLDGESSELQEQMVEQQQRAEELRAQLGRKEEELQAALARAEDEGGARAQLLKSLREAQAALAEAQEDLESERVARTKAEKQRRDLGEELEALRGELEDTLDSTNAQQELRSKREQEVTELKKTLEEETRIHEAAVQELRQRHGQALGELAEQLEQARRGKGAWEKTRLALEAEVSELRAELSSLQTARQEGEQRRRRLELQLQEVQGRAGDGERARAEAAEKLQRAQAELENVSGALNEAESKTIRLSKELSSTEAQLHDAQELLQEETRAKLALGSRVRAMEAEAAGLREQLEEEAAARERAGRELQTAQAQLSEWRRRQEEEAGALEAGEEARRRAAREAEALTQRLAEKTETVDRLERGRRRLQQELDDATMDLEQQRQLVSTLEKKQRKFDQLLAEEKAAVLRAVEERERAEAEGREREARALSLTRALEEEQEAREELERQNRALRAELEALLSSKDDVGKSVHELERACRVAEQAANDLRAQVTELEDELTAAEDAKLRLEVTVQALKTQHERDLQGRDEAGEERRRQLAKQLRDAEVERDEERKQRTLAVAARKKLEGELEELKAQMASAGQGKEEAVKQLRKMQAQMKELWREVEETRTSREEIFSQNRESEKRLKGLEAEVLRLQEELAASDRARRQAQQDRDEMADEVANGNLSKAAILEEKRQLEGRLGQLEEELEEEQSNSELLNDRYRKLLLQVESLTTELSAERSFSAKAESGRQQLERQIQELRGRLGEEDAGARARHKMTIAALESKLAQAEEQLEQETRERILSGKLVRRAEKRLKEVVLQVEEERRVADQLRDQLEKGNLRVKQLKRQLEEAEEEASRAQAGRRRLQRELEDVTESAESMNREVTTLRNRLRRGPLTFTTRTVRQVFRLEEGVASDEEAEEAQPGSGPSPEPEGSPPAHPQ

[7] = target: T4, ADP/ATP translocase 3 (Homo sapiens, UniProt P12236)
T4 sequence (P12236 whole entry): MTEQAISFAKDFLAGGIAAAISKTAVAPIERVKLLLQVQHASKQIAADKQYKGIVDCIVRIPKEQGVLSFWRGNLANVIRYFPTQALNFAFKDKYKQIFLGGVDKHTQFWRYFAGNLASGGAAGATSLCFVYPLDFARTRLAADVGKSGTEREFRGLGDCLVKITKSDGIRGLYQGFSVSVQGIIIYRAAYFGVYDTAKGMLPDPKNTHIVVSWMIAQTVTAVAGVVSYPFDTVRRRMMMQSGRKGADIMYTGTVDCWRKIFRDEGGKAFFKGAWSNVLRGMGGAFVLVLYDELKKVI

[8] = target: Adenosine kinase (Homo sapiens, UniProt P55263)
Chain of Adenosine kinase (P55263 whole entry): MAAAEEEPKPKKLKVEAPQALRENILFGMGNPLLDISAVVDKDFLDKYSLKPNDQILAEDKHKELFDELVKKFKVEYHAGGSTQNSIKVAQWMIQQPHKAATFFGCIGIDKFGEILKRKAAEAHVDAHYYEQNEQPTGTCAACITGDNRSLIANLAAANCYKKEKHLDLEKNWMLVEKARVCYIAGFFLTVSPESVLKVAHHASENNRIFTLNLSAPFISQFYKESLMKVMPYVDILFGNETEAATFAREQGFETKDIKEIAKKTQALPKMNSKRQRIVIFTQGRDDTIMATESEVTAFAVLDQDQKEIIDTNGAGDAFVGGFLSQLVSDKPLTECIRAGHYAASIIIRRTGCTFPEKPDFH

[9] = target: T5, Serine/threonine-protein kinase TBK1 (Homo sapiens, UniProt Q9UHD2)
T5 sequence (Q9UHD2 whole entry): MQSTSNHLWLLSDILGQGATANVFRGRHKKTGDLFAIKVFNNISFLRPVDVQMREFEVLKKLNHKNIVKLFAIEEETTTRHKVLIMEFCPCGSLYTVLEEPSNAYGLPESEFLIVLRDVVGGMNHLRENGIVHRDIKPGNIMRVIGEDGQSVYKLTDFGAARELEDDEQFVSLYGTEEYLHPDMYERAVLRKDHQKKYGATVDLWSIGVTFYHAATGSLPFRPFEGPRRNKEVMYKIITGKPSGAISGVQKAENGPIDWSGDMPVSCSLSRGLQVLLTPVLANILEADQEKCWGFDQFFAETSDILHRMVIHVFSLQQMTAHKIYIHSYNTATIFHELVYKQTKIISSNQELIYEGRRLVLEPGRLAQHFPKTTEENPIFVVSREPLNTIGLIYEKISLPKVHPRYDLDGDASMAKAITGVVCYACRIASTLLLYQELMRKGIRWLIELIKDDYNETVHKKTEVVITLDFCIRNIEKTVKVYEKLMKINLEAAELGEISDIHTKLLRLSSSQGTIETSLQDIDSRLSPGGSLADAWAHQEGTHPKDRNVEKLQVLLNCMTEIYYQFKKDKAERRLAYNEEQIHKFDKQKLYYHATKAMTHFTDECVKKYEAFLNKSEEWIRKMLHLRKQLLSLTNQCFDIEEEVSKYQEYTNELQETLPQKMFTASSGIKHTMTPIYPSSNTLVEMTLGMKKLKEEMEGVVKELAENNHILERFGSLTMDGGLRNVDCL

[10] = target: Wee1-like protein kinase (Homo sapiens, UniProt P30291)
Chain of Wee1-like protein kinase (P30291 whole entry): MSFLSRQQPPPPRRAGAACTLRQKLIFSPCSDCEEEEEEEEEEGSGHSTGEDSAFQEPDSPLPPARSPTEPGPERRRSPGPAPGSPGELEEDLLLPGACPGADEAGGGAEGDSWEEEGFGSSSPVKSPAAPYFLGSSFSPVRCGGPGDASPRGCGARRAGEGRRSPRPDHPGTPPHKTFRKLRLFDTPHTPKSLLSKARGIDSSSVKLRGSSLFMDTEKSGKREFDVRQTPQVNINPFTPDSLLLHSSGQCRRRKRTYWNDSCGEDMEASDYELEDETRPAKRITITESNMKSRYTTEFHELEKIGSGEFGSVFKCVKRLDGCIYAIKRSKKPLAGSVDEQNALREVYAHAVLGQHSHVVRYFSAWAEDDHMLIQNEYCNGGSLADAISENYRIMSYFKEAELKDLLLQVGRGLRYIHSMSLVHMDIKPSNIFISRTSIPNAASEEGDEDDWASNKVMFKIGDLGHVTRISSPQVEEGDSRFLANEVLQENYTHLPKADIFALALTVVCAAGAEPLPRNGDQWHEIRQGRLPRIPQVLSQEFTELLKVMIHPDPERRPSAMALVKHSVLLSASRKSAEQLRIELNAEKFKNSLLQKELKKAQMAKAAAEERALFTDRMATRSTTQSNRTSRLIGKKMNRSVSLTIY

[11] = target: Ribosomal protein S6 kinase alpha-3 (Homo sapiens, UniProt P51812)
[12] = target: Adenylate kinase 2, mitochondrial (Homo sapiens, UniProt P54819)
Also: in the data inactive means no Kd found up to 30 µM.

Structure (SMILES)	Kd [1]	Kd [2]	Kd [3]	Kd [4]	Kd [5]	Kd [6]	Kd [7]	Kd [8]	Kd [9]	Kd [10]	Kd [11]	Kd [12]
COc1cc2nccc(Oc3ccc(NC(=O)NC4CC4)c(Cl)c3)c2cc1C(N)=O [LENVATINIB]	> 30 µM (inactive)	> 30 µM (inactive)	> 30 µM (inactive)	> 30 µM (inactive)	> 30 µM (inactive)	> 30 µM (inactive)	> 30 µM (inactive)	> 30 µM (inactive)	> 30 µM (inactive)	> 30 µM (inactive)	> 30 µM (inactive)	> 30 µM (inactive)
Cc1ccc(-n2nc(C(C)(C)C)cc2NC(=O)NCc2cc(F)ccc2Oc2ccc3c(cnn3CCO)c2)cc1 [PEXMETINIB]	> 30 µM (inactive)	> 30 µM (inactive)	> 30 µM (inactive)	> 30 µM (inactive)	> 30 µM (inactive)	> 30 µM (inactive)	> 30 µM (inactive)	> 30 µM (inactive)	> 30 µM (inactive)	> 30 µM (inactive)	> 30 µM (inactive)	> 30 µM (inactive)
CC(=O)Nc1cccc(-n2c(=O)n(C3CC3)c(=O)c3c(Nc4ccc(I)cc4F)n(C)c(=O)c(C)c32)c1 [TRAMETINIB]	> 30 µM (inactive)	> 30 µM (inactive)	> 30 µM (inactive)	> 30 µM (inactive)	> 30 µM (inactive)	> 30 µM (inactive)	> 30 µM (inactive)	> 30 µM (inactive)	> 30 µM (inactive)	> 30 µM (inactive)	> 30 µM (inactive)	> 30 µM (inactive)
COC(=O)N[C@@H](C)CNc1nccc(-c2cn(C(C)C)nc2-c2cc(Cl)cc(NS(C)(=O)=O)c2F)n1 [ENCORAFENIB]	> 30 µM (inactive)	> 30 µM (inactive)	> 30 µM (inactive)	> 30 µM (inactive)	> 30 µM (inactive)	> 30 µM (inactive)	> 30 µM (inactive)	> 30 µM (inactive)	> 30 µM (inactive)	> 30 µM (inactive)	> 30 µM (inactive)	> 30 µM (inactive)
O=C(Nc1ccc(-c2ccnc(Nc3ccc(N4CCOCC4)cc3)n2)cc1)C1CCCN1 (centres undefined) [XL-019]	> 30 µM (inactive)	> 30 µM (inactive)	> 30 µM (inactive)	> 30 µM (inactive)	> 30 µM (inactive)	> 30 µM (inactive)	> 30 µM (inactive)	> 30 µM (inactive)	0.561 µM (active)	> 30 µM (inactive)	> 30 µM (inactive)	> 30 µM (inactive)
CCn1c(=O)c(-c2cc[nH]n2)cc2c(C)nc(N)nc21 [VOXTALISIB]	> 30 µM (inactive)	> 30 µM (inactive)	> 30 µM (inactive)	> 30 µM (inactive)	> 30 µM (inactive)	> 30 µM (inactive)	> 30 µM (inactive)	> 30 µM (inactive)	> 30 µM (inactive)	> 30 µM (inactive)	> 30 µM (inactive)	> 30 µM (inactive)
COc1ccc(-c2ccc3c(N4CCOC[C@@H]4C)nc(N4CCOC[C@@H]4C)nc3n2)cc1CO [AZD-8055]	> 30 µM (inactive)	> 30 µM (inactive)	> 30 µM (inactive)	> 30 µM (inactive)	> 30 µM (inactive)	> 30 µM (inactive)	> 30 µM (inactive)	> 30 µM (inactive)	> 30 µM (inactive)	> 30 µM (inactive)	> 30 µM (inactive)	> 30 µM (inactive)
N[C@@H]1CCCN(c2c(/C=C3\SC(=O)NC3=O)cccc2-c2ccccc2)C1	> 30 µM (inactive)	> 30 µM (inactive)	> 30 µM (inactive)	> 30 µM (inactive)	> 30 µM (inactive)	> 30 µM (inactive)	> 30 µM (inactive)	> 30 µM (inactive)	> 30 µM (inactive)	> 30 µM (inactive)	> 30 µM (inactive)	> 30 µM (inactive)
CNC(=O)c1cc(Oc2ccc(NC(=O)Nc3ccc(Cl)c(C(F)(F)F)c3)c(F)c2)ccn1 [REGORAFENIB]	> 30 µM (inactive)	> 30 µM (inactive)	> 30 µM (inactive)	> 30 µM (inactive)	> 30 µM (inactive)	> 30 µM (inactive)	> 30 µM (inactive)	> 30 µM (inactive)	> 30 µM (inactive)	> 30 µM (inactive)	> 30 µM (inactive)	> 30 µM (inactive)
COCCNCc1ccc(-c2cc3nccc(Oc4ccc(NC(=S)NC(=O)Cc5ccc(F)cc5)cc4F)c3s2)nc1 [GLESATINIB]	> 30 µM (inactive)	> 30 µM (inactive)	> 30 µM (inactive)	> 30 µM (inactive)	> 30 µM (inactive)	> 30 µM (inactive)	> 30 µM (inactive)	> 30 µM (inactive)	> 30 µM (inactive)	> 30 µM (inactive)	> 30 µM (inactive)	> 30 µM (inactive)
CCN1CCN(Cc2ccc(-c3cc4c(N[C@H](C)c5ccccc5)ncnc4[nH]3)cc2)CC1 [AEE-788]	> 30 µM (inactive)	> 30 µM (inactive)	> 30 µM (inactive)	> 30 µM (inactive)	> 30 µM (inactive)	> 30 µM (inactive)	> 30 µM (inactive)	> 30 µM (inactive)	> 30 µM (inactive)	65.2 µM (active)	> 30 µM (inactive)	> 30 µM (inactive)
CN1CC[C@@H](c2c(O)cc(O)c3c(=O)cc(-c4ccccc4Cl)oc23)[C@@H]1CO	> 30 µM (inactive)	> 30 µM (inactive)	> 30 µM (inactive)	> 30 µM (inactive)	0.002 µM	> 30 µM (inactive)	> 30 µM (inactive)	> 30 µM (inactive)	> 30 µM (inactive)	> 30 µM (inactive)	> 30 µM (inactive)	> 30 µM (inactive)

Reference: ChEMBL document CHEMBL3991601, “The target landscape of clinical kinase drugs” (Science, 2017)
